The chromatographic logP is a lipophilicity value derived from retention on a column.

The structures appear in SMILES notation.

These results are taken from patent US7943774B2 (priority 2008, dated 2011).

One data set is described as follows: log P (pH2.3). The class given is physicochemical. The conditions noted are these: method [b]: LC-MS, acidic range, pH 2.7, 0.1% aqueous formic acid and acetonitrile.
With `CC(C)(C)c1cc(C(F)(F)F)nn1CC(=O)N1CCC(c2nc(CCc3cccc4ccccc34)cs2)CC1` [Example I-111], the log p was 5.14^[b].
With `COc1ccc(/C=C\c2csc(C3CCN(C(=O)Cn4nc(C(F)(F)F)cc4C)CC3)n2)cc1` [Example I-12], the log p is 3.9^[b].
Still for that read-out and setting: the value for `CC(C)(C)c1cc(C(F)(F)F)nn1CC(=O)N1CCC(c2nc(C#Cc3cccc4ccccc34)cs2)CC1` [Example I-119] was 5.14^[b].
For the compound `Cc1cc(C(F)(F)F)nn1CC(=O)N1CCC(c2nc(/C=C/c3cccc(C(F)(F)F)c3)cs2)CC1` [Example I-94], the log p was 4.46^[b].
The same measure, in the same setting: the value for `O=C(Cn1ccc(C(F)(F)F)n1)N1CCC(c2nc(/C=C\c3cccc4ccccc34)cs2)CC1` [Example I-18] was 4.35^[b]; that for `C#Cc1csc(C2CCN(C(=O)Cc3cc(Cl)ccc3Cl)CC2)n1` [Example I-125] was 3.08^[b]; that for `Cc1cc(C)n(CC(=O)N2CCC(c3nc(CCCC(C)c4ccccc4)cs3)CC2)n1` (stereo not drawn) [Example I-83] was 3.83^[b].
Regarding `Cc1cc(C(F)(F)F)nn1CC(=O)N1CCC(c2nc(/C=C\c3ccccc3)cs2)CC1` [Example I-1], the log p is 3.91^[b].
For the compound `O=C(Cc1cccc(C(F)(F)F)c1)N1CCC(c2nc(CCc3ccccc3)cs2)CC1` [Example I-56], the log p is 4.26^[b].
On to `Cc1cc(C(F)(F)F)nn1CC(=O)N1CCC(c2nc(CCC3CCCc4ccccc43)cs2)CC1` (stereo not drawn) [Example I-133], for which the log p is 4.95^[b].
Regarding `Cc1cc(C)n(CC(=O)N2CCC(c3nc(/C=C/c4cccc(C(F)(F)F)c4)cs3)CC2)n1` [Example I-96], the log p was 3.56^[b].
Same read-out and setting: the value for `Cc1cc(C(F)(F)F)nn1CC(=O)N1CCC(c2nc(/C=C\c3ccc(Cl)cc3)cs2)CC1` [Example I-9] was 4.41^[b].
Take `O=C(Cn1ccc(C(F)(F)F)n1)N1CCC(c2nc(CCc3ccccc3)cs2)CC1` [Example I-55]: the log p was 3.57^[b].
Take `Cc1c(Cl)c(C(F)(F)F)nn1CC(=O)N1CCC(c2nc(/C=C\c3cccc4ccccc34)cs2)CC1` [Example I-19]: the log p is 5.14^[b].
Still for that read-out and setting: the value for `CC(C)(C)c1cc(C(F)(F)C(F)(F)F)n(CC(=O)N2CCC(c3nc(CCc4cccc5ccccc45)cs3)CC2)n1` [Example I-112] was 5.78^[b]; that for `Cc1cc(C(F)(F)F)nn1CC(=O)N1CCC(c2nc(C#Cc3ccccc3Cl)cs2)CC1` [Example I-101] was 4.12^[b].
Same read-out and setting: the value for `CCc1cc(CC)n(CC(=O)N2CCC(c3nc(CCc4cccc5ccccc45)cs3)CC2)n1` [Example I-107] was 4.04^[b].
Same read-out and setting: the value for `Cc1nc(C2CCN(C(=O)Cn3nc(C(F)(F)F)cc3C)CC2)sc1CC(C)C` [Example I-73] was 3.75^[b]; that for `Cc1c(Cl)c(C(F)(F)F)nn1CC(=O)N1CCC(c2nc(/C=C\c3ccccc3)cs2)CC1` [Example I-8] was 4.56^[b].
With `O=C(Cc1cc(Br)ccc1Br)N1CCC(c2nc(C#Cc3cccc4ccccc34)cs2)CC1` [Example I-124], the log p was 5.47^[b].
For the compound `CC(C)(C)c1cc(C(F)(F)C(F)(F)F)nn1CC(=O)N1CCC(c2nc(C#Cc3cccc4ccccc34)cs2)CC1` [Example I-120], the log p was 5.59^[b].
On the same count and under the same terms, the value for `Cc1cc(C(F)(F)F)nn1CC(=O)N1CCC(c2nc(/C=C\Cc3ccccc3)cs2)CC1` [Example I-23] was 4.41^[b]; that for `CC(C(=O)N1CCC(c2nc(CCc3ccccc3)cs2)CC1)n1ccc(C(F)(F)F)n1` (stereo not drawn) [Example I-68] was 3.93^[b]; that for `O=C(Cn1nc(C(F)F)cc1C(F)F)N1CCC(c2nc(C#Cc3cccc4ccccc34)cs2)CC1` [Example I-117] was 4.41^[b].
Same read-out and setting: the value for `Cc1cc(C(F)(F)F)nn1CC(=O)N1CCC(c2nc(CCc3ccc(Cl)cc3Cl)cs2)CC1` [Example I-123] was 4.74^[b].
The same measure, in the same setting: the value for `Cc1cc(C(F)F)n(CC(=O)N2CCC(c3nc(CCc4ccccc4)cs3)CC2)n1` [Example I-35] was 3.37^[b].
On to `CC(C)c1cc(C(F)(F)F)n(CC(=O)N2CCC(c3nc(C#Cc4cccc5ccccc45)cs3)CC2)n1` [Example I-122], for which the log p was 4.99^[b].
Still for that read-out and setting: the value for `Cc1cc(C)n(CC(=O)N2CCC(c3nc(/C=C/c4ccccc4)cs3)CC2)n1` [Example I-84] was 3.04^[b].

Still in this data set, the particulars now being: method [b]: LC-MS, acidic range, pH 2.7, 0.1% aqueous formic acid and acetonitrile; HPLC on reversed-phase C 18.
Consider `Cc1cccnc1C#Cc1csc(C2CCN(C(=O)Cn3nc(C(F)(F)F)cc3C(F)(F)F)CC2)n1` [Example I-216], for which the log p was 3.37^[b].
On to `Cc1noc(C)c1C#Cc1csc(C2CCN(C(=O)Cc3cc(Cl)ccc3Cl)CC2)n1` [Example I-229], for which the log p is 3.86^[b].
Still for that read-out and setting: next, `Cc1ccccc1C#Cc1csc(C2CCN(C(=O)Cn3nc(C(F)(F)F)cc3C)CC2)n1` [Example I-206]: 4.15^[b].
For the compound `Cc1cccnc1C#Cc1csc(C2CCN(C(=O)Cn3nc(C(F)F)cc3C(F)F)CC2)n1` [Example I-222], the log p is 2.68^[b].
Same read-out and setting: the value for `Cc1ccccc1C=Cc1csc(C2CCN(C(=O)Cn3nc(C(F)(F)F)cc3C(F)(F)F)CC2)n1` (mixture of isomers) [Example I-174] was 4.93^[b]; that for `O=C(Cn1nc(C(F)(F)F)cc1C(F)(F)F)N1CCC(c2nc(C#Cc3ccccc3Br)cs2)CC1` [Example I-213] was 4.74^[b]; that for `O=C(Cn1nc(C(F)F)cc1C(F)F)N1CCC(c2nc(C#Cc3ccccc3Br)cs2)CC1` [Example I-219] was 4.04^[b].
The same measure, in the same setting: the value for `Cc1ccccc1C#Cc1csc(C2CCN(C(=O)Cn3nc(C(F)F)cc3C(F)F)CC2)n1` [Example I-218] was 3.99^[b]; that for `O=C(Cn1nc(C(F)F)cc1C(F)F)N1CCC(c2nc(C#Cc3c(F)cccc3F)cs2)CC1` [Example I-220] was 3.7^[b]; that for `Cc1cc(C(F)(F)F)nn1CC(=O)N1CCC(c2nc(C#Cc3c(F)cccc3F)cs2)CC1` [Example I-208] was 3.83^[b].
Same read-out and setting: next, `Cc1ccc(C)c(CC(=O)N2CCC(c3nc(CCc4c(F)cccc4F)cs3)CC2)c1` [Example I-160]: 4.48^[b].
For `Cc1ccc(C)c(CC(=O)N2CCC(c3nc(C#Cc4ccccc4Br)cs3)CC2)c1` [Example I-231], the log p is 4.77^[b].
Turning to `Cc1cccnc1/C=C\c1csc(C2CCN(C(=O)Cn3nc(C(F)(F)F)cc3C(F)(F)F)CC2)n1` [Example I-236], the log p is 2.46^[b].
On the same count and under the same terms, next, `Cc1ccccc1C=Cc1csc(C2CCN(C(=O)Cn3nc(C(F)(F)F)cc3C)CC2)n1` (mixture of isomers) [Example I-166]: 4.23^[b].
Still for that read-out and setting: next, `O=C(Cc1cc(Cl)ccc1Cl)N1CCC(c2nc(C#Cc3c(F)cccc3F)cs2)CC1` [Example I-226]: 4.52^[b].
The same measure, in the same setting: the value for `Cc1cc(C(F)(F)F)nn1CC(=O)N1CCC(c2nc(C=Cc3c(F)cccc3Cl)cs2)CC1` (mixture of isomers) [Example I-242] was 4.48^[b].

Staying with this data set, now noted: method [c]: LC-MS, neutral range, pH 7.8, 0.001 molar aqueous ammonium bicarbonate and acetonitrile.
In the case of `Cc1cc(C)n(CC(=O)N2CCC(c3nc(C#Cc4cccc5ccccc45)cs3)CC2)n1` [Example I-74], the log p was 3.85^[c].
Still for that read-out and setting: next, `O=C(Cc1cc(Br)ccc1Br)N1CCC(c2nc(C#Cc3cccc4ccccc34)cs2)CC1` [Example I-124]: 5.52^[c];; `Cc1cc(C(F)(F)F)nn1CC(=O)N1CCC(c2nc(CCc3ccc(Cl)cc3Cl)cs2)CC1` [Example I-123]: 4.77^[c];.

The same data set, now with this note: method [c]: LC-MS, neutral range, pH 7.8, 0.001 molar aqueous ammonium bicarbonate solution and acetonitrile; HPLC on reversed-phase C 18.
On to `Cc1ccccc1C#Cc1csc(C2CCN(C(=O)Cn3nc(C(F)(F)F)cc3C)CC2)n1` [Example I-206], for which the log p is 4.15^[c];.
The same measure, in the same setting: next, `Cc1cccnc1C#Cc1csc(C2CCN(C(=O)Cn3nc(C(F)F)cc3C(F)F)CC2)n1` [Example I-222]: 2.86^[c];.
The same measure, in the same setting: the value for `O=C(Cn1nc(C(F)F)cc1C(F)F)N1CCC(c2nc(C#Cc3ccccc3Br)cs2)CC1` [Example I-219] was 4.04^[c];.
For `Cc1ccccc1C#Cc1csc(C2CCN(C(=O)Cn3nc(C(F)F)cc3C(F)F)CC2)n1` [Example I-218], the log p was 4.02^[c];.
On the same count and under the same terms, the value for `O=C(Cn1nc(C(F)F)cc1C(F)F)N1CCC(c2nc(C#Cc3c(F)cccc3F)cs2)CC1` [Example I-220] was 3.73^[c];; that for `Cc1cc(C(F)(F)F)nn1CC(=O)N1CCC(c2nc(C#Cc3c(F)cccc3F)cs2)CC1` [Example I-208] was 3.86^[c];.
The same measure, in the same setting: the value for `Cc1ccc(C)c(CC(=O)N2CCC(c3nc(CCc4c(F)cccc4F)cs3)CC2)c1` [Example I-160] was 4.55^[c];; that for `Cc1ccc(C)c(CC(=O)N2CCC(c3nc(C#Cc4ccccc4Br)cs3)CC2)c1` [Example I-231] was 4.8^[c];.

Still in this data set, the particulars now being: reversed-phase HPLC column (C18); method [b]: LC-MS, acidic range, pH 2.7, 0.1% aqueous formic acid and acetonitrile.
Turning to `O=C(Cc1ccsc1)N1CCC(c2nc(CCc3ccccc3)cs2)CC1` [Example I-63, 1-{4-[4-(2-Phenylethyl)-1,3-thiazol-2-yl]piperidin-1-yl}-2-(thiophen-3-yl)ethanone], the chromatographic logP came to 3.47.
Compound `Cc1cc(C(F)(F)F)nn1CC(=O)N1CCC(c2nc(/C=C\c3ccc4ccccc4c3)cs2)CC1` [Example I-20, 2-[5-Methyl-3-(trifluoromethyl)-1H-pyrazol-1-yl]-1-(4-{4-[(Z)-2-(2-naphthyl)vinyl]-1,3-thiazol-2-yl}piperidin-1-yl)ethanone] came in with a chromatographic logP of 4.61.
Still for that read-out and setting: next, `O=C(Cc1nc2ccccc2s1)N1CCC(c2nc(CCc3ccccc3)cs2)CC1` [Example I-71, 2-(1,3-Benzothiazol-2-yl)-1-{4-[4-(2-phenylethyl)-1,3-thiazol-2-yl]piperidin-1-yl}ethanone]: 3.68; `Cc1c(Cl)c(C(F)(F)F)nn1C(C)C(=O)N1CCC(c2nc(CCc3ccccc3)cs2)CC1` (stereo not drawn) [Example I-64, 2-[4-Chloro-5-methyl-3-(trifluoromethyl)-1H-pyrazol-1-yl]-1-{4-[4-(2-phenylethyl)-1,3-thiazol-2-yl]piperidin-1-yl}propan-1-one]: 4.62.
On the same count and under the same terms, the value for `O=C(Cn1cc2ccccc2n1)N1CCC(c2nc(CCc3ccccc3)cs2)CC1` [Example I-70, 2-(2H-Indazol-2-yl)-1-{4-[4-(2-phenylethyl)-1,3-thiazol-2-yl]piperidin-1-yl}ethanone] was 3.14.
Still for that read-out and setting: the value for `CCCCC(=O)N1CCC(c2nc(CCc3ccccc3)cs2)CC1` [Example I-58, 1-{4-[4-(2-Phenylethyl)-1,3-thiazol-2-yl]piperidin-1-yl}pentan-1-one] was 3.73; that for `Cn1ncc(CC(=O)N2CCC(c3nc(CCc4ccccc4)cs3)CC2)c1Cl` [Example I-65, 2-(5-Chloro-1-methyl-1H-pyrazol-4-yl)-1-{4-[4-(2-phenylethyl)-1,3-thiazol-2-yl]piperidin-1-yl}ethanone] was 2.98; that for `Cc1cc(C(F)(F)F)nn1CC(=O)N1CCC(c2nc(CCc3ccccc3)c(Br)s2)CC1` [Example I-78, 1-{4-[5-Bromo-4-(2-phenylethyl)-1,3-thiazol-2-yl]piperidin-1-yl}-2-[5-methyl-3-(trifluoromethyl)-1H-pyrazol-1-yl]ethanone] was 4.71.
